17 molecules from ChEMBL document CHEMBL1145176, “Somatostatin receptor 1 selective analogues: 2. N(alpha)-Methylated scan” (J Med Chem, 2005) can be followed below.

Test [1] addresses Somatostatin receptor type 1 (Homo sapiens, UniProt P30872). Description: Inhibition of [Leu8,D-Trp22,125I-Tyr25]SRIF-28 binding to human somatostatin receptor type 1.
Test [2] addresses Somatostatin receptor type 2 (Homo sapiens, UniProt P30874). The test can be described thus: Inhibition of [Leu8,D-Trp22,125I-Tyr25]SRIF-28 binding to human somatostatin receptor type 2.
Test [3] has as its target Somatostatin receptor type 3 (Homo sapiens, UniProt P32745). The test can be described thus: Inhibition of [Leu8,D-Trp22,125I-Tyr25]SRIF-28 binding to human somatostatin receptor type 3.
The target in test [4] is Somatostatin receptor type 4 (Homo sapiens, UniProt P31391). The test can be described thus: Inhibition of [Leu8,D-Trp22,125I-Tyr25]SRIF-28 binding to human somatostatin receptor type 4.
Test [5] concerns the target Somatostatin receptor type 5 (Homo sapiens, UniProt P35346). The test can be described thus: Inhibition of [Leu8,D-Trp22,125I-Tyr25]SRIF-28 binding to human somatostatin receptor type 5.

Sequence of Somatostatin receptor type 1 (P30872 whole entry): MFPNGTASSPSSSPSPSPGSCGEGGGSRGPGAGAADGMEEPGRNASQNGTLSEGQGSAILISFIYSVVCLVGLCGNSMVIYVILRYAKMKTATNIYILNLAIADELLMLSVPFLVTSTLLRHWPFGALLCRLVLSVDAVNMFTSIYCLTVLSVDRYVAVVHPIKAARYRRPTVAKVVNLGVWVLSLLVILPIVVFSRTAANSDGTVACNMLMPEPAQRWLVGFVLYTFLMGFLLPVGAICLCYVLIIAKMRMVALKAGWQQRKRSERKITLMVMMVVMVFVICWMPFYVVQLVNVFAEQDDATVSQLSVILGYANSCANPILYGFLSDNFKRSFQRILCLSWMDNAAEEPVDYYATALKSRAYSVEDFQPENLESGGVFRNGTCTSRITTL
Sequence of Somatostatin receptor type 4 (P31391 whole entry): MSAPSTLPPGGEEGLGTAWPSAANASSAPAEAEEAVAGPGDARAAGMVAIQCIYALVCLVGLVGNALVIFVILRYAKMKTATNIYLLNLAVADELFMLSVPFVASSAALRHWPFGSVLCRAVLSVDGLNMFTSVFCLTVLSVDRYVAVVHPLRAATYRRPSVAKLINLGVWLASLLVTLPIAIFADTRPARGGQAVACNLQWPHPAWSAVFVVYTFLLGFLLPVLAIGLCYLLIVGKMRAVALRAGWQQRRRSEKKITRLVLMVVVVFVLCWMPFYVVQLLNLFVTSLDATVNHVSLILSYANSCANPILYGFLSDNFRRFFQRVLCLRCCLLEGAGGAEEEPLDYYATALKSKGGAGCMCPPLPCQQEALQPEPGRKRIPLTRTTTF
Sequence of Somatostatin receptor type 2 (P30874 whole entry): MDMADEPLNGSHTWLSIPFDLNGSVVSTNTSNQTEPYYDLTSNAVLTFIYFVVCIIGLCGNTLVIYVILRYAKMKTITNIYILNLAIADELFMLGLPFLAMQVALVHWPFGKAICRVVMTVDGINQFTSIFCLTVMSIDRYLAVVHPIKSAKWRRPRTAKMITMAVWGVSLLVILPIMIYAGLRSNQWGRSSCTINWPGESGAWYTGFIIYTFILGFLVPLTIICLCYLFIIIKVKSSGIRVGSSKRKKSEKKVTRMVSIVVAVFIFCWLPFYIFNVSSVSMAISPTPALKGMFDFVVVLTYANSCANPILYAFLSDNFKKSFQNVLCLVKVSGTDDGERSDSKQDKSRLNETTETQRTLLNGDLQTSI
Sequence of Somatostatin receptor type 3 (P32745 whole entry): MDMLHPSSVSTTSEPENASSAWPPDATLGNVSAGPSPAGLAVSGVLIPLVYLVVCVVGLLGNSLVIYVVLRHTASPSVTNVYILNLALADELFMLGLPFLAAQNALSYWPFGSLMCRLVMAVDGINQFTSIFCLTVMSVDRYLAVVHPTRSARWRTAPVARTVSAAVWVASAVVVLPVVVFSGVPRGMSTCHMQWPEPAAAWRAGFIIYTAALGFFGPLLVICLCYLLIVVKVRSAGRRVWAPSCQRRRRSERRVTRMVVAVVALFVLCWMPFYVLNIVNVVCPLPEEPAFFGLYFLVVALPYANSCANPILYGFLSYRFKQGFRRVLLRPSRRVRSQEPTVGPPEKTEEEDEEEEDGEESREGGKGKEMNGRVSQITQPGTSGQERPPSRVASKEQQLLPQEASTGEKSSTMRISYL
Sequence of Somatostatin receptor type 5 (P35346 whole entry): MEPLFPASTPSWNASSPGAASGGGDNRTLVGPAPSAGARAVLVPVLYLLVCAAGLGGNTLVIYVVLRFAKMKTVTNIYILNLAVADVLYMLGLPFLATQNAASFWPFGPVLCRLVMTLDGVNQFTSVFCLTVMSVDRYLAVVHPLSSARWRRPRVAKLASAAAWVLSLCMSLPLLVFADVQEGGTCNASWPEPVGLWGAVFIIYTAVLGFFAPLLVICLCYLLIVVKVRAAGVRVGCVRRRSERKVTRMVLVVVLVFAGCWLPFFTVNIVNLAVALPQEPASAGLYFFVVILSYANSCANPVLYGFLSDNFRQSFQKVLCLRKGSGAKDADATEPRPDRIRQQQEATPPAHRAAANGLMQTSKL

One may read the IC50 as the concentration at which inhibition is half-maximal. For `C[C@@H](O)[C@@H]1NC(=O)[C@H](Cc2ccc(O)cc2)NC(=O)[C@H]([C@@H](C)O)NC(=O)[C@H](CCCCN)NC(=O)[C@@H](Cc2c[nH]c3ccccc23)NC(=O)[C@H](Cc2ccccc2)NC(=O)[C@H](Cc2ccccc2)NC(=O)[C@H](CCCCN)NC(=O)[C@@H](N)CSSC[C@@H](C(=O)O)NC(=O)[C@H](CO)NC1=O`, the IC50 in test [1] amounted to 10 nM; in test [2] it was 16 nM; in test [3], 8 nM; in test [4], 0.5 nM; in test [5], 4.8 nM.

Take `CC(C)NCc1ccc(C[C@@H]2NC(=O)[C@@H](Cc3ccc4ccccc4c3)NC(=O)[C@H](Cc3ccccc3)NC(=O)[C@H](Cc3ccccc3)NC(=O)[C@H](CCCCN)NC(=O)[C@@H](N)CSSC[C@@H](C(=O)O)NC(=O)[C@H](CO)N(C)C(=O)[C@H]([C@@H](C)O)NC(=O)[C@H](Cc3ccccc3)NC(=O)[C@H]([C@@H](C)O)NC2=O)cc1`: the IC50 is 71 nM in test [1]; greater than 1000 nM in test [2]; greater than 1000 nM in test [3]; greater than 1000 nM in test [4]; greater than 1000 nM in test [5].

Consider `CN[C@H]1CSSC[C@@H](C(=O)O)NC(=O)[C@H](CO)NC(=O)[C@H]([C@@H](C)O)NC(=O)[C@H](Cc2ccccc2)NC(=O)[C@H]([C@@H](C)O)NC(=O)[C@H](Cc2ccc(CNC(C)C)cc2)NC(=O)[C@@H](Cc2c[nH]c3ccccc23)NC(=O)[C@H](Cc2ccccc2)NC(=O)[C@H](Cc2ccccc2)NC(=O)[C@H](CCCCN)NC1=O`, for which the IC50 in test [1] was 14 nM; in test [2], greater than 1000 nM; in test [3] it was greater than 1000 nM; in test [4], greater than 1000 nM; in test [5], greater than 1000 nM.

As to `CC(C)NCc1ccc(C[C@@H]2NC(=O)[C@@H](Cc3c[nH]c4ccccc34)NC(=O)[C@H](Cc3ccccc3)NC(=O)[C@H](Cc3ccccc3)NC(=O)[C@H](CCCCN)NC(=O)[C@@H](N)CSSC[C@@H](C(=O)O)NC(=O)[C@H](CO)NC(=O)[C@H]([C@@H](C)O)N(C)C(=O)[C@H](Cc3ccccc3)NC(=O)[C@H]([C@@H](C)O)NC2=O)cc1`, the IC50 in test [1] is 75 nM; in test [2] it was greater than 1000 nM; in test [3], greater than 1000 nM; in test [4], greater than 1000 nM; in test [5] it was greater than 1000 nM.

Turning to `CC(C)NCc1ccc(C[C@@H]2NC(=O)[C@@H](Cc3c[nH]c4ccccc34)NC(=O)[C@H](Cc3ccccc3)NC(=O)[C@H](Cc3ccccc3)NC(=O)[C@H](CCCCN)NC(=O)[C@@H](N)CSSC[C@@H](C(=O)N[C@@H](CCCCN)C(=O)O)N(C)C(=O)[C@H](CO)NC(=O)[C@H]([C@@H](C)O)NC(=O)[C@H](Cc3ccccc3)NC(=O)[C@H]([C@@H](C)O)NC2=O)cc1`, the IC50 was 35 nM in test [1]; greater than 1000 nM in test [2]; greater than 1000 nM in test [3]; greater than 1000 nM in test [4]; greater than 1000 nM in test [5].

Regarding `CC(C)NCc1ccc(C[C@@H]2NC(=O)[C@@H](Cc3ccc4ccccc4c3)NC(=O)[C@H](Cc3ccccc3)NC(=O)[C@H](Cc3ccccc3)NC(=O)[C@H](CCCCN)N(C)C(=O)[C@@H](N)CSSC[C@@H](C(=O)O)NC(=O)[C@H](CO)NC(=O)[C@H]([C@@H](C)O)NC(=O)[C@H](Cc3ccccc3)NC(=O)[C@H]([C@@H](C)O)NC2=O)cc1`, the IC50 in test [1] is 535 nM; in test [2], greater than 1000 nM; in test [3], greater than 1000 nM; in test [4], greater than 1000 nM; in test [5], greater than 1000 nM.

Regarding `CC(C)NCc1ccc(C[C@@H]2NC(=O)[C@@H](Cc3ccc4ccccc4c3)N(C)C(=O)[C@H](Cc3ccccc3)NC(=O)[C@H](Cc3ccccc3)NC(=O)[C@H](CCCCN)NC(=O)[C@@H](N)CSSC[C@@H](C(=O)O)NC(=O)[C@H](CO)NC(=O)[C@H]([C@@H](C)O)NC(=O)[C@H](Cc3ccccc3)NC(=O)[C@H]([C@@H](C)O)NC2=O)cc1`, the IC50 in test [1] is 325 nM; in test [2], greater than 1000 nM; in test [3] it was greater than 1000 nM; in test [4] it was greater than 1000 nM; in test [5], greater than 1000 nM.

With `CN[C@H]1CSSC[C@@H](C(=O)O)NC(=O)[C@H](CO)NC(=O)[C@H]([C@@H](C)O)NC(=O)[C@H](Cc2ccccc2)NC(=O)[C@H]([C@@H](C)O)NC(=O)[C@H](Cc2ccc(CNC(C)C)cc2)NC(=O)[C@@H](Cc2ccc3ccccc3c2)NC(=O)[C@H](Cc2ccccc2)NC(=O)[C@H](Cc2ccccc2)NC(=O)[C@H](CCCCN)NC1=O`, the IC50 in test [1] is 113 nM; in test [2], greater than 1000 nM; in test [3], greater than 1000 nM; in test [4] it was greater than 1000 nM; in test [5], greater than 1000 nM.

As for `CC(C)NCc1ccc(C[C@@H]2NC(=O)[C@@H](Cc3c[nH]c4ccccc34)NC(=O)[C@H](Cc3ccccc3)NC(=O)[C@H](Cc3ccccc3)NC(=O)[C@H](CCCCN)NC(=O)[C@@H](N)CSSC[C@@H](C(=O)N[C@@H](CCCCN)C(=O)N[C@@H](CCCCN)C(=O)N[C@@H](CCCCN)C(=O)O)N(C)C(=O)[C@H](CO)NC(=O)[C@H]([C@@H](C)O)NC(=O)[C@H](Cc3ccccc3)NC(=O)[C@H]([C@@H](C)O)NC2=O)cc1`, the IC50 in test [1] is 30 nM; in test [2], greater than 1000 nM; in test [3] it was greater than 1000 nM; in test [4] it was greater than 1000 nM; in test [5], 803 nM.

Consider `CC(C)NCc1ccc(C[C@@H]2NC(=O)[C@@H](Cc3ccc4ccccc4c3)NC(=O)[C@H](Cc3ccccc3)NC(=O)[C@H](Cc3ccccc3)NC(=O)[C@H](CCCCN)NC(=O)[C@@H](N)CSSC[C@@H](C(=O)O)NC(=O)[C@H](CO)NC(=O)[C@H]([C@@H](C)O)NC(=O)[C@H](Cc3ccccc3)N(C)C(=O)[C@H]([C@@H](C)O)NC2=O)cc1`, for which the IC50 in test [1] is 583 nM; in test [2], greater than 1000 nM; in test [3], greater than 1000 nM; in test [4] it was greater than 1000 nM; in test [5], greater than 1000 nM.

Consider `CC(C)NCc1ccc(C[C@@H]2NC(=O)[C@H](N(C)C(=O)c3ccc4ccccc4c3)NC(=O)[C@H](Cc3ccccc3)NC(=O)[C@H](Cc3ccccc3)NC(=O)[C@H](CCCCN)NC(=O)[C@@H](N)CSSC[C@@H](C(=O)O)NC(=O)[C@H](CO)NC(=O)[C@H]([C@@H](C)O)NC(=O)[C@H](Cc3ccc(O)cc3)NC(=O)[C@H]([C@@H](C)O)NC2=O)cc1`, for which the IC50 is 3.3 nM in test [1]; greater than 1000 nM in test [2]; greater than 1000 nM in test [3]; 562 nM in test [4]; greater than 1000 nM in test [5].

As to `CC(C)NCc1ccc(C[C@@H]2NC(=O)[C@@H](Cc3ccc4ccccc4c3)NC(=O)[C@H](Cc3ccccc3)NC(=O)[C@H](Cc3ccccc3)NC(=O)[C@H](CCCCN)NC(=O)[C@@H](N)CSSC[C@@H](C(=O)O)NC(=O)[C@H](CO)NC(=O)[C@H]([C@@H](C)O)NC(=O)[C@H](Cc3ccccc3)NC(=O)[C@H]([C@@H](C)O)N(C)C2=O)cc1`, the IC50 in test [1], in test [2], in test [3], in test [4] and in test [5] was greater than 1000 nM in each case.

In the case of `CC(C)NCc1ccc(C[C@@H]2NC(=O)[C@@H](Cc3ccc4ccccc4c3)NC(=O)[C@H](Cc3ccccc3)NC(=O)[C@H](Cc3ccccc3)NC(=O)[C@H](CCCCN)NC(=O)[C@@H](N)CSSC[C@@H](C(=O)O)NC(=O)[C@H](CO)NC(=O)[C@H]([C@@H](C)O)N(C)C(=O)[C@H](Cc3ccccc3)NC(=O)[C@H]([C@@H](C)O)NC2=O)cc1`, the IC50 in test [1] was 176 nM; in test [2], greater than 1000 nM; in test [3], greater than 1000 nM; in test [4], 417 nM; in test [5], greater than 1000 nM.

With `CC(C)NCc1ccc(C[C@@H]2NC(=O)[C@@H](Cc3ccc4ccccc4c3)NC(=O)[C@H](Cc3ccccc3)NC(=O)[C@H](Cc3ccccc3)NC(=O)[C@H](CCCCN)NC(=O)[C@@H](N)CSSC[C@@H](C(=O)O)N(C)C(=O)[C@H](CO)NC(=O)[C@H]([C@@H](C)O)NC(=O)[C@H](Cc3ccccc3)NC(=O)[C@H]([C@@H](C)O)NC2=O)cc1`, the IC50 in test [1] is 260 nM; in test [2] it was greater than 1000 nM; in test [3], greater than 1000 nM; in test [4] it was greater than 1000 nM; in test [5], greater than 1000 nM.

In the case of `CC(C)NCc1ccc(C[C@@H]2NC(=O)[C@@H](Cc3ccc4ccccc4c3)NC(=O)[C@H](Cc3ccccc3)N(C)C(=O)[C@H](Cc3ccccc3)NC(=O)[C@H](CCCCN)NC(=O)[C@@H](N)CSSC[C@@H](C(=O)O)NC(=O)[C@H](CO)NC(=O)[C@H]([C@@H](C)O)NC(=O)[C@H](Cc3ccccc3)NC(=O)[C@H]([C@@H](C)O)NC2=O)cc1`, the IC50 in test [1], in test [2], in test [3], in test [4] and in test [5] was greater than 1000 nM each time.

Consider `CC(C)NCc1ccc(C[C@@H]2NC(=O)[C@H](N(C)C(=O)c3ccc4ccccc4c3)NC(=O)[C@H](Cc3ccccc3)NC(=O)[C@H](Cc3ccccc3)NC(=O)[C@H](CCCCN)NC(=O)[C@@H](N)CSSC[C@@H](C(=O)O)NC(=O)[C@H](CO)NC(=O)[C@H]([C@@H](C)O)NC(=O)[C@H](Cc3ccc(O)c(I)c3)NC(=O)[C@H]([C@@H](C)O)NC2=O)cc1`, for which the IC50 was 6.7 nM in test [1]; greater than 1000 nM in test [2]; 536 nM in test [3]; 435 nM in test [4]; greater than 1000 nM in test [5].

On to `CC(C)NCc1ccc(C[C@@H]2NC(=O)[C@@H](Cc3ccc4ccccc4c3)NC(=O)[C@H](Cc3ccccc3)NC(=O)[C@H](Cc3ccccc3)N(C)C(=O)[C@H](CCCCN)NC(=O)[C@@H](N)CSSC[C@@H](C(=O)O)NC(=O)[C@H](CO)NC(=O)[C@H]([C@@H](C)O)NC(=O)[C@H](Cc3ccccc3)NC(=O)[C@H]([C@@H](C)O)NC2=O)cc1`, for which the IC50 in test [1], in test [2], in test [3], in test [4] and in test [5] was greater than 1000 nM throughout.
